Reference: patent US8785655B2, “Ionic liquid solvents” (Dublin City University, priority 2009, dated 2014)

Legend:
[1] = system: Staphylococcus aureus CCM 4516/08; assay: Screen against bacteria, MIC/IC80; type: cell-based; conditions: SA
Candida glabrata 20/l = assay: In vitro antifungal activity, MIC by microdilution (NCCLS M27-A); conditions: CG
Procedure: (§1) In vitro antifungal activities of the compounds were evaluated on the collection of fungal strains deposited at the Department of Biological and Medical Sciences, Faculty of Pharmacy, Charles University, Czech Republic. All the isolates were maintained on Sabouraud dextrose agar prior to being tested.
(§2) Minimum inhibitory concentrations (MICs) were determined by the microdilution format of the NCCLS M27-A guidelines. […] RPMI 1640 (Sevapharma, Prague) medium supplemented with L-glutamine and buffered with 0.165 M morpholinepropanesulfonic acid to pH 7.0 was used as the test medium. The wells of the microdilution tray contained 100 μl of the RPMI 1640 medium with 2-fold serial dilutions of the compounds (1000 to 0.24 μmol/l for the new compounds) and 100 μl of inoculum suspension. Fungal inoculum in RPMI 1640 was prepared to give a final concentration of 5×103±0.2 cfu·ml-1. The trays were incubated at 35° C. and MICs were read visually for filamentous fungi and photometrically for yeasts as an optical density (OD) at 540 nm after 24 h and 48 h. The MICs were defined as 80% inhibition of the growth of control. MICs were determined twice and in duplicate. The deviations from the usually obtained were no higher than the nearest concentration value up and down the dilution scale.

[2] = system: Candida parapsilosis ATCC 22019; assay: as above; conditions: CP
Candida tropicalis 156 = assay: as above; conditions: CT
[3] = system: Candida lusitaniae 2446/l; assay: as above; conditions: CL
[4] = system: Staphylococcus aureus H 5996/08 Methiciline-resistant; assay: Screen against bacteria, MIC/IC80; type: cell-based; conditions: MRSA
fungi and bacteria = type: cell-based
Procedure: All the 12 bromide salts and 12 octylsulfate CILs in the table below were screened against fungi and bacteria.
CILs with bromide as anion have been screened against the following Fungi and bacteria:
. […] MICs were determined twice and in duplicate.

Absidia corymbifera 272 = assay: In vitro antifungal activity, MIC by microdilution (NCCLS M27-A); conditions: AC
Escherichia coli CCM4517 = assay: Screen against bacteria, MIC/IC80; type: cell-based; conditions: EC
Candida krusei E28 = assay: In vitro antifungal activity, MIC by microdilution (NCCLS M27-A)
Procedure: All the isolates were maintained on Sabouraud dextrose agar prior to being tested.
as §2

[5] = system: Klebsiella pneumoniae J 14368/08 ESBL-positive; assay: Screen against bacteria, MIC/IC80; type: cell-based; conditions: KP-E
Candida krusei ATCC 6258 = assay: In vitro antifungal activity, MIC by microdilution (NCCLS M27-A)
Procedure: as §1, §2

[6] = system: Staphylococcus epidermidis H 6966/08; assay: Screen against bacteria, MIC/IC80; type: cell-based; conditions: SE
[7] = system: Aspergillus fumigatus 231; assay: In vitro antifungal activity, MIC by microdilution (NCCLS M27-A); conditions: AF
Procedure: as §1, §2

[8] = system: Pseudomonas aeruginosa CCM 1961; assay: Screen against bacteria, MIC/IC80; type: cell-based; conditions: PA
[9] = system: Trichophyton mentagrophytes 445; assay: In vitro antifungal activity, MIC by microdilution (NCCLS M27-A); conditions: TM
[10] = system: Candida albicans ATCC 90028; assay: as above
[11] = system: Enterococcus sp. J 14365/08; assay: Screen against bacteria, MIC/IC80; type: cell-based; conditions: EF
[12] = system: Klebsiella pneumoniae D 11750/08; assay: Screen against bacteria, MIC/IC80; type: cell-based; conditions: KP
[13] = system: Candida albicans ATCC 44859; assay: In vitro antifungal activity, MIC by microdilution (NCCLS M27-A)
Procedure: as §1, §2

R-3-methyl-1-[1-(pentoxycarbonyl)-1-phenylmethoxycarbonylmethyl]imidazolium octyl sulphate [KG303]
MIC/IC80 ([1]; 24 h): 1000 µmol/L
MIC/IC80 ([1]; 48 h): 1000 µmol/L
MIC/IC80 (Candida glabrata 20/l; 24 h): >1000 µmol/L
MIC/IC80 (Candida glabrata 20/l; 48 h): >1000 µmol/L
MIC/IC80 ([2]; 24 h): >1000 µmol/L
MIC/IC80 ([2]; 48 h): >1000 µmol/L
MIC/IC80 (Candida tropicalis 156; 24 h): >1000 µmol/L
MIC/IC80 (Candida tropicalis 156; 48 h): >1000 µmol/L
MIC/IC80 ([3]; 24 h): >1000 µmol/L
MIC/IC80 ([3]; 48 h): >1000 µmol/L
MIC/IC80 ([4]; 24 h): 1000 µmol/L
MIC/IC80 ([4]; 48 h): >1000 µmol/L
toxicity / inhibition of the growth of fungi and bacteria (fungi and bacteria): inhibit the growth of fungi and bacteria
MIC/IC80 (Absidia corymbifera 272; 24 h): 1000 µmol/L
MIC/IC80 (Absidia corymbifera 272; 48 h): 1000 µmol/L
MIC/IC80 (Escherichia coli CCM4517; 24 h): >1000 µmol/L
MIC/IC80 (Escherichia coli CCM4517; 48 h): >1000 µmol/L
MIC/IC80 (Candida krusei E28; CK2, 24 h): 1000 µmol/L
MIC/IC80 (Candida krusei E28; CK2, 48 h): >1000 µmol/L
MIC/IC80 ([5]; 24 h): >1000 µmol/L
MIC/IC80 ([5]; 48 h): >1000 µmol/L
MIC/IC80 (Candida krusei ATCC 6258; CK1, 24 h): 1000 µmol/L
MIC/IC80 (Candida krusei ATCC 6258; CK1, 48 h): >1000 µmol/L
MIC/IC80 ([6]; 24 h): 500 µmol/L
MIC/IC80 ([6]; 48 h): 1000 µmol/L
MIC/IC80 ([7]; 24 h): 1000 µmol/L
MIC/IC80 ([7]; 48 h): 1000 µmol/L
MIC/IC80 ([8]; 24 h): >1000 µmol/L
MIC/IC80 ([8]; 48 h): >1000 µmol/L
MIC/IC80 ([9]; 72 h): 250 µmol/L
MIC/IC80 ([9]; 120 h): 500 µmol/L
MIC/IC80 ([10]; CA2, 24 h): 1000 µmol/L
MIC/IC80 ([10]; CA2, 48 h): >1000 µmol/L
MIC/IC80 ([11]; 24 h): >1000 µmol/L
MIC/IC80 ([11]; 48 h): >1000 µmol/L
MIC/IC80 ([12]; 24 h): >1000 µmol/L
MIC/IC80 ([12]; 48 h): >1000 µmol/L
MIC/IC80 ([13]; CA1, 24 h): 500 µmol/L
MIC/IC80 ([13]; CA1, 48 h): >1000 µmol/L

CCOCCOC(=O)C(OC(=O)Cn1cc[n+](C)c1)c1ccccc1.[Br-] (stereo not drawn) [KG818, RS-3-methyl-1-[1-(ethoxyethoxycarbonyl)-1-phenylmethoxycarbonylmethyl]imidazolium bromide]
MIC/IC80 ([1]; 24 h): >1000 µmol/L
MIC/IC80 ([1]; 48 h): >1000 µmol/L
MIC/IC80 (Candida glabrata 20/l; 24 h): >1000 µmol/L
MIC/IC80 (Candida glabrata 20/l; 48 h): >1000 µmol/L
MIC/IC80 ([2]; 24 h): >1000 µmol/L
MIC/IC80 ([2]; 48 h): >1000 µmol/L
MIC/IC80 (Candida tropicalis 156; 24 h): >1000 µmol/L
MIC/IC80 (Candida tropicalis 156; 48 h): >1000 µmol/L
MIC/IC80 ([3]; 24 h): >1000 µmol/L
MIC/IC80 ([3]; 48 h): >1000 µmol/L
MIC/IC80 ([4]; 24 h): >1000 µmol/L
MIC/IC80 ([4]; 48 h): >1000 µmol/L
MIC/IC80 (Absidia corymbifera 272; 24 h): >1000 µmol/L
MIC/IC80 (Absidia corymbifera 272; 48 h): >1000 µmol/L
MIC/IC80 (Escherichia coli CCM4517; 24 h): >1000 µmol/L
MIC/IC80 (Escherichia coli CCM4517; 48 h): >1000 µmol/L
MIC/IC80 (Candida krusei E28; CK2, 24 h): >1000 µmol/L
MIC/IC80 (Candida krusei E28; CK2, 48 h): >1000 µmol/L
MIC/IC80 ([5]; 24 h): >1000 µmol/L
MIC/IC80 ([5]; 48 h): >1000 µmol/L
MIC/IC80 (Candida krusei ATCC 6258; CK1, 24 h): >1000 µmol/L
MIC/IC80 (Candida krusei ATCC 6258; CK1, 48 h): >1000 µmol/L
MIC/IC80 ([6]; 24 h): >1000 µmol/L
MIC/IC80 ([6]; 48 h): >1000 µmol/L
MIC/IC80 ([7]; 24 h): >1000 µmol/L
MIC/IC80 ([7]; 48 h): >1000 µmol/L
MIC/IC80 ([8]; 24 h): >1000 µmol/L
MIC/IC80 ([8]; 48 h): >1000 µmol/L
MIC/IC80 ([9]; 72 h): >1000 µmol/L
MIC/IC80 ([9]; 120 h): >1000 µmol/L
MIC/IC80 ([10]; CA2, 24 h): >1000 µmol/L
MIC/IC80 ([10]; CA2, 48 h): >1000 µmol/L
MIC/IC80 ([11]; 24 h): >1000 µmol/L
MIC/IC80 ([11]; 48 h): >1000 µmol/L
MIC/IC80 ([12]; 24 h): >1000 µmol/L
MIC/IC80 ([12]; 48 h): >1000 µmol/L
MIC/IC80 ([13]; CA1, 24 h): >1000 µmol/L
MIC/IC80 ([13]; CA1, 48 h): >1000 µmol/L

CCOCCOC(=O)[C@@H](C)OC(=O)C[n+]1ccn(C)c1 [KG161, R-3-methyl-1-[1-(ethoxyethoxycarbonyl)-1-methylmethoxycarbonylmethyl]imidazolium bromide]
MIC/IC80 ([1]; 24 h): >1000 µmol/L
MIC/IC80 ([1]; 48 h): >1000 µmol/L
MIC/IC80 (Candida glabrata 20/l; 24 h): >1000 µmol/L
MIC/IC80 (Candida glabrata 20/l; 48 h): >1000 µmol/L
MIC/IC80 ([2]; 24 h): >1000 µmol/L
MIC/IC80 ([2]; 48 h): >1000 µmol/L
MIC/IC80 (Candida tropicalis 156; 24 h): >1000 µmol/L
MIC/IC80 (Candida tropicalis 156; 48 h): >1000 µmol/L
MIC/IC80 ([3]; 24 h): >1000 µmol/L
MIC/IC80 ([3]; 48 h): >1000 µmol/L
MIC/IC80 ([4]; 24 h): >1000 µmol/L
MIC/IC80 ([4]; 48 h): >1000 µmol/L
MIC/IC80 (Absidia corymbifera 272; 24 h): >1000 µmol/L
MIC/IC80 (Absidia corymbifera 272; 48 h): >1000 µmol/L
MIC/IC80 (Escherichia coli CCM4517; 24 h): >1000 µmol/L
MIC/IC80 (Escherichia coli CCM4517; 48 h): >1000 µmol/L
MIC/IC80 (Candida krusei E28; CK2, 24 h): >1000 µmol/L
MIC/IC80 (Candida krusei E28; CK2, 48 h): >1000 µmol/L
MIC/IC80 ([5]; 24 h): >1000 µmol/L
MIC/IC80 ([5]; 48 h): >1000 µmol/L
MIC/IC80 (Candida krusei ATCC 6258; CK1, 24 h): >1000 µmol/L
MIC/IC80 (Candida krusei ATCC 6258; CK1, 48 h): >1000 µmol/L
MIC/IC80 ([6]; 24 h): >1000 µmol/L
MIC/IC80 ([6]; 48 h): >1000 µmol/L
MIC/IC80 ([7]; 24 h): >1000 µmol/L
MIC/IC80 ([7]; 48 h): >1000 µmol/L
MIC/IC80 ([8]; 24 h): >1000 µmol/L
MIC/IC80 ([8]; 48 h): >1000 µmol/L
MIC/IC80 ([9]; 72 h): >1000 µmol/L
MIC/IC80 ([9]; 120 h): >1000 µmol/L
MIC/IC80 ([10]; CA2, 24 h): >1000 µmol/L
MIC/IC80 ([10]; CA2, 48 h): >1000 µmol/L
MIC/IC80 ([11]; 24 h): >1000 µmol/L
MIC/IC80 ([11]; 48 h): >1000 µmol/L
MIC/IC80 ([12]; 24 h): >1000 µmol/L
MIC/IC80 ([12]; 48 h): >1000 µmol/L
MIC/IC80 ([13]; CA1, 24 h): >1000 µmol/L
MIC/IC80 ([13]; CA1, 48 h): >1000 µmol/L

CCOCCOC(=O)[C@H](OC(=O)C[n+]1ccn(C)c1)c1ccccc1 [KG835, R-3-methyl-1-[1-(ethoxyethoxycarbonyl)-1-phenylmethoxycarbonylmethyl]imidazolium bromide]
MIC/IC80 ([1]; 24 h): >1000 µmol/L
MIC/IC80 ([1]; 48 h): >1000 µmol/L
MIC/IC80 (Candida glabrata 20/l; 24 h): >1000 µmol/L
MIC/IC80 (Candida glabrata 20/l; 48 h): >1000 µmol/L
MIC/IC80 ([2]; 24 h): >1000 µmol/L
MIC/IC80 ([2]; 48 h): >1000 µmol/L
MIC/IC80 (Candida tropicalis 156; 24 h): >1000 µmol/L
MIC/IC80 (Candida tropicalis 156; 48 h): >1000 µmol/L
MIC/IC80 ([3]; 24 h): >1000 µmol/L
MIC/IC80 ([3]; 48 h): >1000 µmol/L
MIC/IC80 ([4]; 24 h): >1000 µmol/L
MIC/IC80 ([4]; 48 h): >1000 µmol/L
MIC/IC80 (Absidia corymbifera 272; 24 h): >1000 µmol/L
MIC/IC80 (Absidia corymbifera 272; 48 h): >1000 µmol/L
MIC/IC80 (Escherichia coli CCM4517; 24 h): >1000 µmol/L
MIC/IC80 (Escherichia coli CCM4517; 48 h): >1000 µmol/L
MIC/IC80 (Candida krusei E28; CK2, 24 h): >1000 µmol/L
MIC/IC80 (Candida krusei E28; CK2, 48 h): >1000 µmol/L
MIC/IC80 ([5]; 24 h): >1000 µmol/L
MIC/IC80 ([5]; 48 h): >1000 µmol/L
MIC/IC80 (Candida krusei ATCC 6258; CK1, 24 h): >1000 µmol/L
MIC/IC80 (Candida krusei ATCC 6258; CK1, 48 h): >1000 µmol/L
MIC/IC80 ([6]; 24 h): >1000 µmol/L
MIC/IC80 ([6]; 48 h): >1000 µmol/L
MIC/IC80 ([7]; 24 h): >1000 µmol/L
MIC/IC80 ([7]; 48 h): >1000 µmol/L
MIC/IC80 ([8]; 24 h): >1000 µmol/L
MIC/IC80 ([8]; 48 h): >1000 µmol/L
MIC/IC80 ([9]; 72 h): >1000 µmol/L
MIC/IC80 ([9]; 120 h): >1000 µmol/L
MIC/IC80 ([10]; CA2, 24 h): >1000 µmol/L
MIC/IC80 ([10]; CA2, 48 h): >1000 µmol/L
MIC/IC80 ([11]; 24 h): >1000 µmol/L
MIC/IC80 ([11]; 48 h): >1000 µmol/L
MIC/IC80 ([12]; 24 h): >1000 µmol/L
MIC/IC80 ([12]; 48 h): >1000 µmol/L
MIC/IC80 ([13]; CA1, 24 h): >1000 µmol/L
MIC/IC80 ([13]; CA1, 48 h): >1000 µmol/L
